Test results published in US20010044404A1, “Cleaning process and composition” (3M Innovative Properties Company, priority 1995, published 2001).

Legend:
[1] = Stability in the presence of oxidant (potassium permanganate in acetone); format: physicochemical; conditions: refluxed four hours
Procedure: To assess oxidative stability, potassium permanganate (20 g, 0.126 mole) was dissolved in acetone, and C4F9OCH3 (500 g of 99.9% purity, 2.0 mole) was added to the resulting solution. The solution was refluxed for four hours, with no indication that the permanganate had been consumed (as evidenced by the absence of brown MnO2). The refluxed solution was then distilled into a 500 mL Barrett trap filled with water. The lower fluorochemical phase of the resulting mixture was separated from the upper phase, was washed with four 1.5 L aliquots of water, and was dried by passage through a column of silica gel to yield 471 g of resulting product.

[2] = Flash point testing ASTM D3278-89; format: physicochemical
Procedure: The alkoxy-substituted perfluorocompounds C4F9OCH3, C4F9OC2H5, and c-C6F11OCH3 were tested for flash point by the standard method defined by ASTM D3278-89.

[3] = Mineral oil removal from aluminum coupon, sonication in solvent; conditions: sonicated 1 minute
Procedure: In the following Examples and Comparative Examples, the cleaning ability of the alkoxy-substituted perfluorocompounds used in the cleaning process of the invention was further evaluated. A 1.28 cm×1.28 cm×0.225 cm wire-wrapped, aluminum coupon was coated with white heavy mineral oil (available from Aldrich Chemical) by immersing the coupon in an oil-filled beaker. The initial amount of the oil on the coupon was determined by weighing it on an analytical balance to the nearest 0.1 mg. The coupon was immersed in a container of solvent and sonicated for 1 minute at the indicated temperature (see Table 3 below for the solvents and temperatures used). The coupon was then weighed again, and the results were recorded in Table 3 as percent oil removal.

[4] = Rinse agent in co-solvent cleaning of solder flux; conditions: solvating agent 1 minute at about 55° C., then 30 seconds in boiling solvent
Procedure: The ability of alkoxy-substituted perfluorocompounds to function as a rinse agent in a co-solvent cleaning process was evaluated. The above-described aluminum coupon was coated with solder flux (available from Alpha Metals as Alpha 611 rosin, mildly activated flux) by immersing the coupon into a flux-filled beaker. The flux-coated coupon was then dried using a forced air convection drier. The initial amount of the flux on the coupon was determined by weighing it on an analytical balance to the nearest 0.1 mg. The coupon was immersed in a container of a mixed solvating agent comprising approximately 50% methyl decanoate and 50% dipropylene glycol di-n-butyl ether and was sonicated for 1 minute at approximately 55° C. The coupon was then immersed for 30 seconds into alkoxy-substituted perfluorocompound which had been heated to its boiling point. The coupon was weighed again, and the results were recorded in Table 5 below as percent oil removed from the coupon.

[5] = Mineral oil removal with boiling methyl decanoate/perfluorocompound mixture; conditions: boiling mixture 40 volume % methyl decanoate, 60 volume % perfluorocompound
Procedure: The above-described test coupon was dipped in white heavy mineral oil (available from Aldrich Chemical), was immersed in a boiling single-phase mixture of 40 volume % of a solvating agent comprising essentially methyl decanoate and 60 volume % of alkoxy-substituted perfluorocompound (a cleaning composition of the invention) for 60 seconds, was cooled for 60 seconds, and was then immersed in mixture vapor for 30 seconds. The percent oil removal was determined in the above-described manner.

[6] = Pump oil removal in vapor of boiling n-C6H14/perfluorocompound mixture; conditions: vapor of boiling 40 volume % n-C6H14, 60 volume % fluorinated component; 60 seconds
Procedure: The above-described test coupon was dipped into DuoSeal Pump Oil (available from Sargent-Welch) and was then immersed in the vapor of a boiling mixture of 40 volume % n-C6H14 and 60 volume % alkoxy-substituted perfluorocompound (a cleaning composition of the invention), for 60 seconds. The percent oil removal was determined in the above-described manner.

[7] = Open cup flash point ASTM D1310-86; format: physicochemical
Procedure: (§1) Various properties were measured for C4F9OCH3, CHClFCF2OCH3, and blends of each ether compound with cosolvent, trans-1,2-dichloroethylene (hereinafter, t-DCE) or n-butyl bromide, at various weight ratios.

[8] = Closed cup flash point ASTM D3278-96; format: physicochemical
Procedure: as §1

## COC(F)(F)C(F)(F)C(F)(F)C(F)(F)F [Example C4F9OCH3, perfluorobutyl methyl ether]
[1]
  Stability in the presence of oxidant: stable in the presence of the oxidant
[2]
  Flash point: no flash point
[3]; 23 ° C.
  percent oil removal: 60.3%
[3]; 50 ° C.
  percent oil removal: 98.7%
[3]; 60 ° C.
  percent oil removal: 99.9%
[4]
  % Removed: 100.0%
[5]
  Percent Soil Removed: 94.61%
[6]
  Percent Soil Removed: 90.8%
[7]; 20 weight % ether, 80 % t-DCE
  Open Cup Flash Point (ASTM D1310-86): none
[7]; 50 weight % ether, 50 % t-DCE
  Open Cup Flash Point (ASTM D1310-86): none
[7]; 80 weight % ether, 20 % t-DCE
  Open Cup Flash Point (ASTM D1310-86): none
[7]; 100 weight % ether, 0 % t-DCE
  Open Cup Flash Point (ASTM D1310-86): none
[8]; 20 weight % ether, 80 % n-butyl bromide
  Closed Cup Flash Point (ASTM D3278-96): none^4
[8]; 30 weight % ether, 70 % n-butyl bromide
  Closed Cup Flash Point (ASTM D3278-96): none^4
[8]; 50 weight % ether, 50 % n-butyl bromide
  Closed Cup Flash Point (ASTM D3278-96): none^4
[8]; 80 weight % ether, 20 % n-butyl bromide
  Closed Cup Flash Point (ASTM D3278-96): none^4
[8]; 100 weight % ether, 0 % n-butyl bromide, raised to 140° F. (60° C.)
  Closed Cup Flash Point (ASTM D3278-96): none^4
